PubChem BioAssay (NCI)
Values joined by “and” are separate entries in the source; they are usually repeats but may differ in a detail not shown here. Identical values can stand only once.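 The compound was tested at five concentrations on cells cultured in 96-well plates, with a 48-hour exposure period. GI50: concentration for 50% inhibition of growth. TGI denotes the concentration required for complete inhibition of growth.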

The compounds below were run on BT-549 breast (assay: NCI anticancer screen, dose series, 48 h).
Work on `Cn1c2ccccc2c2c(-c3ccccc3)[n+]3ccncc3nc21` yielded a GI50 of 29.6 µM and a TGI of over 100 µM.
For `C[C@@H]1OC(O)[C@@H](F)[C@H](O)[C@@H]1O` (stereo not given in full), the GI50 was over 100 µM and the TGI was over 100 µM.
`COc1ccc(-c2cnnc3c(-c4cccc(C(F)(F)F)c4)cnn23)cc1` showed a GI50 of 3.4 µM and a TGI of over 100 µM.
In the case of `NC(=O)c1ccc(I)c(N)c1`, the GI50 was over 100 µM and the TGI was over 100 µM.
`C=CCCCCCCCCC(=O)[O][Sn]([CH2]CCC)([CH2]CCC)[CH2]CCC` was tested, and the GI50 was 0.14 µM and the TGI was 0.277 µM.
`CC/C(=C(/c1ccc(O)cc1)c1ccc(OCCNC)cc1)c1ccccc1` gave a GI50 of 3.37 µM and a TGI of 13.9 µM.
`O=C(/C(Br)=C/c1ccccc1)c1ccccc1` gave a GI50 of 2.08 µM and a TGI of 4.6 µM.
Compound `C=C1C(=O)O[C@H]2[C@H]1CC/C(Cn1cc(-c3ccc(OC)cc3)nn1)=C\CC[C@@]1(C)O[C@@H]21` has a GI50 of 1.31 µM and a TGI of 2.89 µM.
For `O=C1CCCCN1CCCCC#Cc1ccccc1C#Cc1ccc([N+](=O)[O-])cc1`, the GI50 was 16.6 µM and the TGI was 44.6 µM.
In the case of `CCOc1cc2c(Cl)ncnc2c(OCC)c1OCC`, the GI50 was 4.82 µM and the TGI was 14.5 µM.
`Oc1ccc2ccccc2c1N=Nc1nccs1` showed a GI50 of 4.75 µM and a TGI of 32.3 µM.
For `CC(=O)OCCN1c2ccccc2Sc2cnccc21`, the TGI was over 10 µM.
Work on `CC(C)(CC(=O)Nc1ccccc1)C(=O)O` yielded a TGI of over 100 µM.
Work on `COc1ccc(/C(COc2c(-c3ccccc3)oc3ccccc3c2=O)=N\O)cc1` yielded a GI50 of 12.3 µM and a TGI of 25.6 µM.
`Cn1c(=O)c2[nH]c(SCc3ccccn3)nc2n(C)c1=S` was tested, and the TGI was over 100 µM.
For `COc1cc2c(c(O)c1Br)C(=O)c1c(O)cc(C[C@H](C)O)cc1[C@H]2[C@H]1c2cc(C[C@H](C)O)cc(O)c2C(=O)c2c1cc(OC)c(Br)c2O`, the GI50 was 10.9 µM and 7.55 µM and the TGI was 63.5 µM and 45.2 µM.
With `COc1ccc(-c2cc(=O)c3ccc(O)cc3o2)cc1OC` the TGI was over 100 µM.
Work on `CC[C@]1(O)C[C@@H]2CN(CCc3c([nH]c4ccccc34)[C@@](C(=O)OC)(c3cc4c(cc3OC)N(C)[C@H]3[C@@](O)(C(=O)OC)[C@H](OC(C)=O)[C@]5(CC)C=CCN6CC[C@]43[C@@H]65)C2)C1` yielded a GI50 of under 0.01 µM and a TGI of 8.4 µM.
Work on `N#CSc1c[nH]c2cccc(/C=C/C(=O)/C=C(/C=C/c3cccc4[nH]cc(SC#N)c34)OB(F)F)c12` yielded a GI50 of 1.26 µM and a TGI of 3.86 µM.
For `COc1cc([N+](=O)[O-])cc2c3c(n(C)c12)[C@@]1(C)CCC2c4ccc(OCc5ccccc5)cc4CCC2C1C3` (stereo not given in full), the GI50 was over 100 µM and the TGI was over 100 µM.
In the case of `C=CC(=O)N1CC2(CCN(c3nc(OC4CCN(CCCOC)CC4)nc4c(OCC(F)(F)F)c(-c5c(C)ccc6[nH]ncc56)c(C5CC5)cc34)CC2)C1`, the GI50 was 2.26 µM and the TGI was 5.71 µM.
`Nc1nc(Cl)c2ncn(Cc3ccc(C45CC6CC(CC(C6)C4)C5)c(O)c3)c2n1` was tested, and the GI50 was 6.82 µM and the TGI was 25.2 µM.
With `CCC(C)c1c(Cl)nc(Cl)nc1Cl` (stereo not given) the TGI was 4.65 µM.
In the case of `N#Cc1ccc(O)c(C2=NCC(c3cccc(Oc4ccccc4)c3)O2)c1` (stereo not given), the GI50 was 1.96 µM and the TGI was 17.8 µM.
For `CS(=O)(=O)c1ccc([C@H]2O[C@@H](CO)C[C@]2(O)c2ccc(S(C)(=O)=O)cc2)cc1`, the GI50 was over 100 µM and the TGI was over 100 µM.
`C[C@]12CC[C@H]3[C@@H](CC=C4C[C@@H](O)CC[C@@]43C)[C@@H]1CC[C@@H]2N(CCO)CCO` was tested, and the TGI was over 100 µM.
`CC(C)(C)OC(=O)N1CCc2c(sc3ncnc(N/N=C/c4cccc5ccccc45)c23)C1` gave a GI50 of 8.45 µM and a TGI of 72.9 µM.
`CCN(CC)c1ccc(/C=C/c2ccc3cc(C)ccc3[n+]2CC)cc1` gave a GI50 of 0.0314 µM and a TGI of 1.39 µM.
`Cc1ccc2c(c1)[n+]([O-])c(N)n[n+]2[O-]` was tested, and the TGI was over 100 µM.
With `COC1/C=C\C=C(/C)C(=O)NC2=CC(=O)C(=O)C(=C2O)CC(C)CC(OC)C(O)C(C)/C=C(\C)C1OC(N)=O` (stereo not given) the TGI was over 100 µM.

The compounds below were run on OVCAR-8 ovarian (assay: NCI anticancer screen, dose series, 48 h).
`CN1CCN(C(=O)OCc2nc3c(N4CCOCC4)nc(Cl)nc3n2C)CC1` gave a GI50 of 1.33 µM and a TGI of 5.68 µM.
`COC(=O)[C@]12CC[C@@H](C)[C@H](C)[C@@H]1C1=CC[C@@H]3[C@@]4(C)C/C(=N\O)[C@H](O)[C@@]5(C)COC(=C45)C[C@@]3(C)[C@]1(C)CC2` gave a GI50 of 10 µM and a TGI of 26.6 µM.
Work on `Oc1c(CN2CCC(N3CCCCC3)CC2)cc(Cc2cc(CN3CCC(N4CCCCC4)CC3)c(O)c3ncccc23)c2cccnc12` yielded a GI50 of 1.83 µM and a TGI of 12.3 µM.
`Cn1c2ccccc2c2c(-c3ccccc3)[n+]3ccncc3nc21` gave a GI50 of over 100 µM and a TGI of over 100 µM.
In the case of `C[C@@H]1OC(O)[C@@H](F)[C@H](O)[C@@H]1O` (stereo not given in full), the GI50 was over 100 µM and the TGI was over 100 µM.
With `COc1ccc(-c2cnnc3c(-c4cccc(C(F)(F)F)c4)cnn23)cc1` the GI50 was 3.33 µM and the TGI was over 100 µM.
`NC(=O)c1ccc(I)c(N)c1` gave a GI50 of over 100 µM and a TGI of over 100 µM.
`CC/C(=C(/c1ccc(O)cc1)c1ccc(OCCNC)cc1)c1ccccc1` showed a GI50 of 2.14 µM and a TGI of 5.13 µM.
Compound `O=C(/C(Br)=C/c1ccccc1)c1ccccc1` has a GI50 of 2.75 µM and a TGI of 10.2 µM.
`C=C1C(=O)O[C@H]2[C@H]1CC/C(Cn1cc(-c3ccc(OC)cc3)nn1)=C\CC[C@@]1(C)O[C@@H]21` was tested, and the GI50 was 2.59 µM and the TGI was 7.67 µM.
`O=C1CCCCN1CCCCC#Cc1ccccc1C#Cc1ccc([N+](=O)[O-])cc1` gave a GI50 of 2.81 µM and a TGI of 9.13 µM.
Work on `CCOc1cc2c(Cl)ncnc2c(OCC)c1OCC` yielded a GI50 of 6.34 µM and a TGI of 28.5 µM.
In the case of `Oc1ccc2ccccc2c1N=Nc1nccs1`, the GI50 was 0.494 µM and the TGI was 42 µM.
Work on `CC(=O)OCCN1c2ccccc2Sc2cnccc21` yielded a TGI of over 10 µM.
`CC(C)(CC(=O)Nc1ccccc1)C(=O)O` was tested, and the TGI was over 100 µM.
`COc1ccc(/C(COc2c(-c3ccccc3)oc3ccccc3c2=O)=N\O)cc1` gave a GI50 of 47.6 µM and a TGI of over 50 µM.
`Cn1c(=O)c2[nH]c(SCc3ccccn3)nc2n(C)c1=S` was tested, and the TGI was over 100 µM.
`COc1cc2c(c(O)c1Br)C(=O)c1c(O)cc(C[C@H](C)O)cc1[C@H]2[C@H]1c2cc(C[C@H](C)O)cc(O)c2C(=O)c2c1cc(OC)c(Br)c2O` was tested, and the GI50 was 3.23 µM and 7.56 µM and the TGI was 67.5 µM and > 100 µM.
`COc1ccc(-c2cc(=O)c3ccc(O)cc3o2)cc1OC` gave a TGI of over 100 µM.
`CC[C@]1(O)C[C@@H]2CN(CCc3c([nH]c4ccccc34)[C@@](C(=O)OC)(c3cc4c(cc3OC)N(C)[C@H]3[C@@](O)(C(=O)OC)[C@H](OC(C)=O)[C@]5(CC)C=CCN6CC[C@]43[C@@H]65)C2)C1` was tested, and the GI50 was under 0.01 µM and the TGI was over 100 µM.
In the case of `N#CSc1c[nH]c2cccc(/C=C/C(=O)/C=C(/C=C/c3cccc4[nH]cc(SC#N)c34)OB(F)F)c12`, the GI50 was 0.355 µM and the TGI was over 59.5 µM.
Work on `COc1cc([N+](=O)[O-])cc2c3c(n(C)c12)[C@@]1(C)CCC2c4ccc(OCc5ccccc5)cc4CCC2C1C3` (stereo not given in full) yielded a GI50 of over 100 µM and a TGI of over 100 µM.
For `C=CC(=O)N1CC2(CCN(c3nc(OC4CCN(CCCOC)CC4)nc4c(OCC(F)(F)F)c(-c5c(C)ccc6[nH]ncc56)c(C5CC5)cc34)CC2)C1`, the GI50 was 3.26 µM and the TGI was 17.4 µM.
`Nc1nc(Cl)c2ncn(Cc3ccc(C45CC6CC(CC(C6)C4)C5)c(O)c3)c2n1` was tested, and the GI50 was 2.93 µM and the TGI was 14.1 µM.
With `CCC(C)c1c(Cl)nc(Cl)nc1Cl` (stereo not given) the TGI was 38.3 µM.
`N#Cc1ccc(O)c(C2=NCC(c3cccc(Oc4ccccc4)c3)O2)c1` (stereo not given) was tested, and the GI50 was 0.578 µM and the TGI was over 100 µM.
`CS(=O)(=O)c1ccc([C@H]2O[C@@H](CO)C[C@]2(O)c2ccc(S(C)(=O)=O)cc2)cc1` was tested, and the GI50 was over 100 µM and the TGI was over 100 µM.
With `C[C@]12CC[C@H]3[C@@H](CC=C4C[C@@H](O)CC[C@@]43C)[C@@H]1CC[C@@H]2N(CCO)CCO` the TGI was over 100 µM.
With `CC(C)(C)OC(=O)N1CCc2c(sc3ncnc(N/N=C/c4cccc5ccccc45)c23)C1` the GI50 was 4.23 µM and the TGI was over 100 µM.
`CCN(CC)c1ccc(/C=C/c2ccc3cc(C)ccc3[n+]2CC)cc1` was tested, and the GI50 was 0.107 µM and the TGI was 12.6 µM.
`Cc1ccc2c(c1)[n+]([O-])c(N)n[n+]2[O-]` was tested, and the TGI was over 100 µM.
Compound `COC1/C=C\C=C(/C)C(=O)NC2=CC(=O)C(=O)C(=C2O)CC(C)CC(OC)C(O)C(C)/C=C(\C)C1OC(N)=O` (stereo not given) has a TGI of over 52.4 µM.

These compounds were tested on DU-145 prostate (assay: NCI anticancer screen, dose series, 48 h).
For `CN1CCN(C(=O)OCc2nc3c(N4CCOCC4)nc(Cl)nc3n2C)CC1`, the GI50 was 1.39 µM and the TGI was 3.09 µM.
